# Assay results taken from ChEMBL document CHEMBL3885881, “DrugMatrix”.
# Species: Rattus norvegicus
# Experiment: DrugMatrix - Regimen: Daily Repeat
# Format: toxicity, organism-based, Sprague-Dawley
# Set-up: regimen Daily Repeat, gender Male, age 6-8 weeks
# Conditions: in vivo, po, 0 mg/kg, route oral GAVAGE, dose level Control, vehicle 100 % WATER; for ABSOLUTE BASOPHIL / ABSOLUTE EOSINOPHIL / ABSOLUTE LYMPHOCYTE / ABSOLUTE MONOCYTE / ABSOLUTE SEGMENTED NEUTROPHIL / BASOPHIL / EOSINOPHIL / ERYTHROCYTE COUNT / HEMATOCRIT / HEMOGLOBIN / LEUKOCYTE COUNT / LYMPHOCYTE / MEAN CORPUSCULAR HEMOGLOBIN / MEAN CORPUSCULAR HEMOGLOBIN CONCENTRATION / MEAN CORPUSCULAR VOLUME / MONOCYTE / NEUTROPHIL / NUCLEATED RED BLOOD CELLS / PLATELET COUNT: tissue Blood; for ALANINE AMINOTRANSFERASE / ALBUMIN / ALKALINE PHOSPHATASE / ASPARTATE AMINOTRANSFERASE / BLOOD UREA NITROGEN / CARBON DIOXIDE / CHLORIDE / CHOLESTEROL / CREATINE PHOSPHOKINASE / CREATININE / GLUCOSE / LACTATE DEHYDROGENASE / LIPASE / PHOSPHORUS / POTASSIUM / SODIUM / TOTAL BILIRUBIN / TOTAL PROTEIN / URIC ACID: tissue Plasma
compound,measurement,setting,value
COc1cccc(C2(O)CCCCC2CN(C)C)c1 (stereo unspecified) [TRAMADOL],ABSOLUTE BASOPHIL,"72 h, time 3 day",0 CELLS/uL
same,ABSOLUTE EOSINOPHIL,"72 h, time 3 day",32.5 CELLS/uL
same,ABSOLUTE LYMPHOCYTE,"72 h, time 3 day",9305.83 CELLS/uL
same,ABSOLUTE MONOCYTE,"72 h, time 3 day",43.83 CELLS/uL
same,ABSOLUTE SEGMENTED NEUTROPHIL,"72 h, time 3 day",817.83 CELLS/uL
same,BASOPHIL,"72 h, time 3 day",0%
same,EOSINOPHIL,"72 h, time 3 day",0.33%
same,ERYTHROCYTE COUNT,"72 h, time 3 day",5.38 x10E6/uL
same,HEMATOCRIT,"72 h, time 3 day",33.63%
same,HEMOGLOBIN,"72 h, time 3 day",13.17 G/DL
same,LEUKOCYTE COUNT,"72 h, time 3 day",10.2 x10E3/uL
same,LYMPHOCYTE,"72 h, time 3 day",91.17%
same,MEAN CORPUSCULAR HEMOGLOBIN,"72 h, time 3 day",24.5 pg
same,MEAN CORPUSCULAR HEMOGLOBIN CONCENTRATION,"72 h, time 3 day",39.13 G/DL
same,MEAN CORPUSCULAR VOLUME,"72 h, time 3 day",62.53 fL
same,MONOCYTE,"72 h, time 3 day",0.5%
same,NEUTROPHIL,"72 h, time 3 day",8%
same,NUCLEATED RED BLOOD CELLS,"72 h, time 3 day",0.17 /100WBC
same,PLATELET COUNT,"72 h, time 3 day",858 x10E3/uL
same,ALANINE AMINOTRANSFERASE,"72 h, time 3 day",55.67 u/L
same,ALBUMIN,"72 h, time 3 day",4.07 G/DL
same,ALKALINE PHOSPHATASE,"72 h, time 3 day",337 u/L
same,ASPARTATE AMINOTRANSFERASE,"72 h, time 3 day",84 u/L
same,BLOOD UREA NITROGEN,"72 h, time 3 day",13.17 mg/dL
same,CARBON DIOXIDE,"72 h, time 3 day",34.17 mmol/L
same,CHLORIDE,"72 h, time 3 day",99.33 MEQ/L
same,CHOLESTEROL,"72 h, time 3 day",78.83 mg/dL
same,CREATINE PHOSPHOKINASE,"72 h, time 3 day",576.83 u/L
same,CREATININE,"72 h, time 3 day",0.17 mg/dL
same,GLUCOSE,"72 h, time 3 day",152.67 mg/dL
same,LACTATE DEHYDROGENASE,"72 h, time 3 day",147.83 u/L
same,LIPASE,"72 h, time 3 day",9.5 u/L
same,PHOSPHORUS,"72 h, time 3 day",10.78 mg/dL
same,POTASSIUM,"72 h, time 3 day",6.34 MEQ/L
same,SODIUM,"72 h, time 3 day",144.12 MEQ/L
same,TOTAL BILIRUBIN,"72 h, time 3 day",0.18 mg/dL
same,TOTAL PROTEIN,"72 h, time 3 day",6.08 G/DL
same,URIC ACID,"72 h, time 3 day",0.65 mg/dL
same,ABSOLUTE BASOPHIL,"120 h, time 5 day",0 CELLS/uL
same,ABSOLUTE EOSINOPHIL,"120 h, time 5 day",31.17 CELLS/uL
same,ABSOLUTE LYMPHOCYTE,"120 h, time 5 day",7918.33 CELLS/uL
same,ABSOLUTE MONOCYTE,"120 h, time 5 day",58.33 CELLS/uL
same,ABSOLUTE SEGMENTED NEUTROPHIL,"120 h, time 5 day",725.5 CELLS/uL
same,BASOPHIL,"120 h, time 5 day",0%
same,EOSINOPHIL,"120 h, time 5 day",0.33%
same,ERYTHROCYTE COUNT,"120 h, time 5 day",5.32 x10E6/uL
same,HEMATOCRIT,"120 h, time 5 day",33.53%
same,HEMOGLOBIN,"120 h, time 5 day",13.17 G/DL
same,LEUKOCYTE COUNT,"120 h, time 5 day",8.73 x10E3/uL
same,LYMPHOCYTE,"120 h, time 5 day",90.33%
same,MEAN CORPUSCULAR HEMOGLOBIN,"120 h, time 5 day",24.82 pg
same,MEAN CORPUSCULAR HEMOGLOBIN CONCENTRATION,"120 h, time 5 day",39.33 G/DL
same,MEAN CORPUSCULAR VOLUME,"120 h, time 5 day",63.12 fL
same,MONOCYTE,"120 h, time 5 day",0.67%
same,NEUTROPHIL,"120 h, time 5 day",8.67%
same,NUCLEATED RED BLOOD CELLS,"120 h, time 5 day",0 /100WBC
same,PLATELET COUNT,"120 h, time 5 day",1144.83 x10E3/uL
same,ALANINE AMINOTRANSFERASE,"120 h, time 5 day",60.5 u/L
same,ALBUMIN,"120 h, time 5 day",3.97 G/DL
same,ALKALINE PHOSPHATASE,"120 h, time 5 day",343.17 u/L
same,ASPARTATE AMINOTRANSFERASE,"120 h, time 5 day",80.83 u/L
same,BLOOD UREA NITROGEN,"120 h, time 5 day",15 mg/dL
same,CARBON DIOXIDE,"120 h, time 5 day",31 mmol/L
same,CHLORIDE,"120 h, time 5 day",99.75 MEQ/L
same,CHOLESTEROL,"120 h, time 5 day",71.5 mg/dL
same,CREATINE PHOSPHOKINASE,"120 h, time 5 day",237.17 u/L
same,CREATININE,"120 h, time 5 day",0.17 mg/dL
same,GLUCOSE,"120 h, time 5 day",137 mg/dL
same,LACTATE DEHYDROGENASE,"120 h, time 5 day",146.17 u/L
same,LIPASE,"120 h, time 5 day",11.5 u/L
same,PHOSPHORUS,"120 h, time 5 day",10.13 mg/dL
same,POTASSIUM,"120 h, time 5 day",6 MEQ/L
same,SODIUM,"120 h, time 5 day",145 MEQ/L
same,TOTAL BILIRUBIN,"120 h, time 5 day",0.13 mg/dL
same,TOTAL PROTEIN,"120 h, time 5 day",5.82 G/DL
same,URIC ACID,"120 h, time 5 day",0.62 mg/dL
